# Tested on: 435261-313-R-J1-PDC tumor spheroid viability
# Test: Anticancer human tumor 435261-313-R-J1-PDC patient-derived colon adenocarcinoma cell line growth inhibition [PI3K]
# Settings: spheroids with HUVEC and MSC; for IC50: curve of first compound; for viability, T/C: stronger effect = lower value
# Summary of the method: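 Agents were dosed from a top concentration near clinical Cmax (otherwise 10 microM) in half-log decrements, alone or combined with PI3K inhibitors. The spheroids contain tumor cells plus endothelial (HUVEC) and MSC stroma; viability is measured.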
# [1] = second compound 0.0316 µM, first compound 0.000316 µM
# [2] = second compound 0.0316 µM, first compound 0.001 µM
# [3] = second compound 0.0316 µM, first compound 0.00316 µM
# [4] = second compound 0.0316 µM, first compound 0.01 µM
# [5] = second compound 0.0316 µM, first compound 0.0316 µM
# [6] = second compound 0.0316 µM, first compound 0.1 µM
# [7] = second compound 0.1 µM, first compound 0.000316 µM
# [8] = second compound 0.1 µM, first compound 0.001 µM
# [9] = second compound 0.1 µM, first compound 0.00316 µM
# [10] = second compound 0.1 µM, first compound 0.01 µM
# [11] = second compound 0.1 µM, first compound 0.0316 µM
# [12] = second compound 0.1 µM, first compound 0.1 µM
# [13] = second compound 0.316 µM, first compound 0.000316 µM
# [14] = second compound 0.316 µM, first compound 0.001 µM
# [15] = second compound 0.316 µM, first compound 0.00316 µM
# [16] = second compound 0.316 µM, first compound 0.01 µM
# [17] = second compound 0.316 µM, first compound 0.0316 µM
# [18] = second compound 0.316 µM, first compound 0.1 µM
# [19] = second compound 1 µM, first compound 0.000316 µM
# [20] = second compound 1 µM, first compound 0.001 µM
# [21] = second compound 1 µM, first compound 0.00316 µM
# [22] = second compound 1 µM, first compound 0.01 µM
# [23] = second compound 1 µM, first compound 0.0316 µM
# [24] = second compound 1 µM, first compound 0.1 µM
# [25] = second compound 3.16 µM, first compound 0.000316 µM
# [26] = second compound 3.16 µM, first compound 0.001 µM
# [27] = second compound 3.16 µM, first compound 0.00316 µM
# [28] = second compound 3.16 µM, first compound 0.01 µM
# [29] = second compound 3.16 µM, first compound 0.0316 µM
# [30] = second compound 3.16 µM, first compound 0.1 µM
# [31] = second compound 10 µM, first compound 0.000316 µM
# [32] = second compound 10 µM, first compound 0.001 µM
# [33] = second compound 10 µM, first compound 0.00316 µM
# [34] = second compound 10 µM, first compound 0.01 µM
# [35] = second compound 10 µM, first compound 0.0316 µM
# [36] = second compound 10 µM, first compound 0.1 µM
# 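Also: spheroids exposed to compounds for 7 days.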
smiles,measurement,setting,value
CC(=O)c1c(C)c2cnc(Nc3ccc(N4CCNCC4)cn3)nc2n(C2CCCC2)c1=O + Cc1nc(NC(=O)N2CCCC2C(N)=O)sc1-c1ccnc(C(C)(C)C(F)(F)F)c1,IC50,second compound 0.0316 µM,> 100 nM
same,IC50,second compound 0.1 µM,> 100 nM
same,IC50,second compound 0.316 µM,0.316 nM
same,IC50,second compound 1 µM,< 0.316 nM
same,IC50,second compound 3.16 µM,< 0.316 nM
same,IC50,second compound 10 µM,< 0.316 nM
same,"viability, T/C",[1],61.5%
same,"viability, T/C",[2],91.9%
same,"viability, T/C",[3],96.5%
same,"viability, T/C",[4],66%
same,"viability, T/C",[5],88.5%
same,"viability, T/C",[6],59.1%
same,"viability, T/C",[7],68%
same,"viability, T/C",[8],69.4%
same,"viability, T/C",[9],69.5%
same,"viability, T/C",[10],69.5%
same,"viability, T/C",[11],74.7%
same,"viability, T/C",[12],66.1%
same,"viability, T/C",[13],40.9%
same,"viability, T/C",[14],60.9%
same,"viability, T/C",[15],40.9%
same,"viability, T/C",[16],52.5%
same,"viability, T/C",[17],41.3%
same,"viability, T/C",[18],32.5%
same,"viability, T/C",[19],26.9%
same,"viability, T/C",[20],27.5%
same,"viability, T/C",[21],35.2%
same,"viability, T/C",[22],33.5%
same,"viability, T/C",[23],26.6%
same,"viability, T/C",[24],21.2%
same,"viability, T/C",[25],14.7%
same,"viability, T/C",[26],14.2%
same,"viability, T/C",[27],13.9%
same,"viability, T/C",[28],16.8%
same,"viability, T/C",[29],16.9%
same,"viability, T/C",[30],15.9%
same,"viability, T/C",[31],10.2%
same,"viability, T/C",[32],7.93%
same,"viability, T/C",[33],7.66%
same,"viability, T/C",[34],9.02%
same,"viability, T/C",[35],10.4%
same,"viability, T/C",[36],5.66%
CC(C)n1nc(-c2ccc3oc(N)nc3c2)c2c(N)ncnc21 + Cc1nc(NC(=O)N2CCCC2C(N)=O)sc1-c1ccnc(C(C)(C)C(F)(F)F)c1,IC50,second compound 0.0316 µM,26.3 nM
same,IC50,second compound 0.1 µM,20.2 nM
same,IC50,second compound 0.316 µM,3.58 nM
same,IC50,second compound 1 µM,< 0.316 nM
same,IC50,second compound 3.16 µM,< 0.316 nM
same,IC50,second compound 10 µM,< 0.316 nM
same,"viability, T/C",[1],83.6%
same,"viability, T/C",[2],93%
same,"viability, T/C",[3],76.7%
same,"viability, T/C",[4],47.9%
same,"viability, T/C",[5],62%
same,"viability, T/C",[6],13.6%
same,"viability, T/C",[7],76.9%
same,"viability, T/C",[8],71.1%
same,"viability, T/C",[9],94.3%
same,"viability, T/C",[10],65.6%
same,"viability, T/C",[11],38.6%
same,"viability, T/C",[12],15.4%
same,"viability, T/C",[13],46.4%
same,"viability, T/C",[14],67.7%
same,"viability, T/C",[15],45.8%
same,"viability, T/C",[16],40%
same,"viability, T/C",[17],18.3%
same,"viability, T/C",[18],12.8%
same,"viability, T/C",[19],30.6%
same,"viability, T/C",[20],30.5%
same,"viability, T/C",[21],30.3%
same,"viability, T/C",[22],20.2%
same,"viability, T/C",[23],19.6%
same,"viability, T/C",[24],9.5%
same,"viability, T/C",[25],13.1%
same,"viability, T/C",[26],23.9%
same,"viability, T/C",[27],21.7%
same,"viability, T/C",[28],19.1%
same,"viability, T/C",[29],12.1%
same,"viability, T/C",[30],7.83%
same,"viability, T/C",[31],10.6%
same,"viability, T/C",[32],10.1%
same,"viability, T/C",[33],9.88%
same,"viability, T/C",[34],8.69%
same,"viability, T/C",[35],4.8%
same,"viability, T/C",[36],4.03%

# Source: PubChem BioAssay AID1963976 (Molecular Pharmacology Branch, DTP, NCI, 2024)
